Laboratory results published in ChEMBL document CHEMBL1201862, “PubChem BioAssay data set” (2004).
The source made the active and inactive calls.

Assays:
[1] = target: T1, Sentrin-specific protease 7 (Homo sapiens, UniProt Q9BQF6); assay: inhibition of human SENP7 cleavage activity – biochemical, luminescence, SAR follow-up (AID 504497); format: functional
T1 sequence (Q9BQF6 whole entry): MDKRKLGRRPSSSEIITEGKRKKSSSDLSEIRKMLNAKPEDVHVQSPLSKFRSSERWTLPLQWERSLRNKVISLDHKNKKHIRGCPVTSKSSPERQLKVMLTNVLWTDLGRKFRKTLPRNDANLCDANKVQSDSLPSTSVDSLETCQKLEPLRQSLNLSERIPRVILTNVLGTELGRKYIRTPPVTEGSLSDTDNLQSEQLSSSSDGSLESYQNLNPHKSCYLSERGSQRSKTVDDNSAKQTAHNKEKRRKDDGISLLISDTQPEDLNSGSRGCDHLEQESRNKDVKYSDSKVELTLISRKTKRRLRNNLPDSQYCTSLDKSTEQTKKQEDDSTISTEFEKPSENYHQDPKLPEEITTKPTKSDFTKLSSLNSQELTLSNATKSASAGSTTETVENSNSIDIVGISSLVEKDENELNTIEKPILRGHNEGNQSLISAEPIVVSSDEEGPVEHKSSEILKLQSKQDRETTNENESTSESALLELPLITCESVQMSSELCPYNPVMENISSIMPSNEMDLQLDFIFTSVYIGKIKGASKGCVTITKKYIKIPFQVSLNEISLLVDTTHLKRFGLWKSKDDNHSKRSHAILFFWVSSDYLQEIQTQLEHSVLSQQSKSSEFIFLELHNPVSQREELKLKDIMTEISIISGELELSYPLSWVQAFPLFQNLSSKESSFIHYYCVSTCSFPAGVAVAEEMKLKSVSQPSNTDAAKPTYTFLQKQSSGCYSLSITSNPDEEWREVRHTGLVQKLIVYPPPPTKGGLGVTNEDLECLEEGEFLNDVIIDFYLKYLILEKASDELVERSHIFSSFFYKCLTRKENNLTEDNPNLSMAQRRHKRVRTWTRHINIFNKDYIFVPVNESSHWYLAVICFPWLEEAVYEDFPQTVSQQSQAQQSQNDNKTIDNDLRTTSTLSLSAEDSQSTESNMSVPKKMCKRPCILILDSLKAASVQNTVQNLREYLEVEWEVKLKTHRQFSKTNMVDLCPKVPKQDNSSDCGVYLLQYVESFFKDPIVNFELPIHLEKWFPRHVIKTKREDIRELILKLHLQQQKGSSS

[2] = target: T2, Caspase-3 (Homo sapiens, UniProt P42574); assay: SAR Analysis of small molecule inhibitors of Sentrin-specific proteases (SENPs) using a Caspase-3 Selectivity assay. [Related pubchem assays (depositor defined):AID2540, AID2599, AID434973, AID489001]; format: functional
T2 sequence (P42574 whole entry): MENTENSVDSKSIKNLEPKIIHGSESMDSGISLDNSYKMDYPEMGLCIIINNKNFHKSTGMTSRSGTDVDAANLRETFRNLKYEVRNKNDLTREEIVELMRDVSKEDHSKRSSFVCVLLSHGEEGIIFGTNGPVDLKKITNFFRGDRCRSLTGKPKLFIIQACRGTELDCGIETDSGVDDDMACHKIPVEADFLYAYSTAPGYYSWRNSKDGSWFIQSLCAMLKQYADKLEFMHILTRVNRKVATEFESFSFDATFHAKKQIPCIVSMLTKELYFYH

[3] = target: T3, Sentrin-specific protease 6 (Homo sapiens, UniProt Q9GZR1); assay: SAR Analysis of small molecule inhibitors of Sentrin-specific protease 6 (SENP6) using a Luminescent assay. [Related pubchem assays (depositor defined):AID2582, AID2599]; format: functional
T3 sequence (Q9GZR1 whole entry): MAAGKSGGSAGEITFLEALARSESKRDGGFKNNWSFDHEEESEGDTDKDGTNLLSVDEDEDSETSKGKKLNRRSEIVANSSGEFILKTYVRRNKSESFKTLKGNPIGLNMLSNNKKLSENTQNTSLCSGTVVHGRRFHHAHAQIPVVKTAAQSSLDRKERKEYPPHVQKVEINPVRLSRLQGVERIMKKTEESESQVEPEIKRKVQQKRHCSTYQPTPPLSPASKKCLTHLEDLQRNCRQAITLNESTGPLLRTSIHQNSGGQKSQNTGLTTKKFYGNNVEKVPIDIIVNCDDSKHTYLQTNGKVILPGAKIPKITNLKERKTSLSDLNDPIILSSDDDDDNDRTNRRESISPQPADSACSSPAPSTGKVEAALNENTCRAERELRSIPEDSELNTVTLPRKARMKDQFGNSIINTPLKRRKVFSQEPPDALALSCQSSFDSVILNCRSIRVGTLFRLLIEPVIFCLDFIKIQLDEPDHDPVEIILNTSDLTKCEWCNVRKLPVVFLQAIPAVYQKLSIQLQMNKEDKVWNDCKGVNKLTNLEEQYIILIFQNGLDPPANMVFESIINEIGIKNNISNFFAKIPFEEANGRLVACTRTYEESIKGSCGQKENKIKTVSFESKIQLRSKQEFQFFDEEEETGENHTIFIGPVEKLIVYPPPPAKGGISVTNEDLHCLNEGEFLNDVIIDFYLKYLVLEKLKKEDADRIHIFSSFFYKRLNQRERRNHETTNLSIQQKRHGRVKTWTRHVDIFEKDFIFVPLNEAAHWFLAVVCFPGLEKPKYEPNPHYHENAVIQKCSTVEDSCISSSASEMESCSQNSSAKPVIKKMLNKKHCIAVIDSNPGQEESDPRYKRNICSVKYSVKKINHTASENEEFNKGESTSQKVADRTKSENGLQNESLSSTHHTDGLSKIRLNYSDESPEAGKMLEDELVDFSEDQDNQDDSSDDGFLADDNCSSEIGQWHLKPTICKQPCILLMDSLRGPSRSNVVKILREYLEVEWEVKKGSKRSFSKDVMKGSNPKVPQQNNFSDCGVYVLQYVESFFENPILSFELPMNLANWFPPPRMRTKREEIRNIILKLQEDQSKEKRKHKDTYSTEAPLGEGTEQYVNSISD

[4] = target: T4, Sentrin-specific protease 8 (Homo sapiens, UniProt Q96LD8); assay: inhibition of human SENP8 cleavage activity – biochemical, luminescence, SAR follow-up (AID 504501); format: functional
T4 sequence (Q96LD8 whole entry): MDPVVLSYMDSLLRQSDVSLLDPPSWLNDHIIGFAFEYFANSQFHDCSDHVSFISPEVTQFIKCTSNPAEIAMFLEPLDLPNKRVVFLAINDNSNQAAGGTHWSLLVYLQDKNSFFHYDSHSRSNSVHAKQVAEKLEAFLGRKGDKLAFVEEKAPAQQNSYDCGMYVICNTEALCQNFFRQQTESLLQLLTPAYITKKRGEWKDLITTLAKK

[5] = target: T5, Fatty acid synthase (Homo sapiens, UniProt P49327); assay: inhibition of human FAS-TE enzyme activity – biochemical, endpoint fluorescence intensity, uHTS hits, dose response (AID 624327); format: functional;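 further: fluorescence from hydrolysis of an O-methyl fluorescein acyl ester substrate by the enzyme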
T5 sequence (P49327 whole entry): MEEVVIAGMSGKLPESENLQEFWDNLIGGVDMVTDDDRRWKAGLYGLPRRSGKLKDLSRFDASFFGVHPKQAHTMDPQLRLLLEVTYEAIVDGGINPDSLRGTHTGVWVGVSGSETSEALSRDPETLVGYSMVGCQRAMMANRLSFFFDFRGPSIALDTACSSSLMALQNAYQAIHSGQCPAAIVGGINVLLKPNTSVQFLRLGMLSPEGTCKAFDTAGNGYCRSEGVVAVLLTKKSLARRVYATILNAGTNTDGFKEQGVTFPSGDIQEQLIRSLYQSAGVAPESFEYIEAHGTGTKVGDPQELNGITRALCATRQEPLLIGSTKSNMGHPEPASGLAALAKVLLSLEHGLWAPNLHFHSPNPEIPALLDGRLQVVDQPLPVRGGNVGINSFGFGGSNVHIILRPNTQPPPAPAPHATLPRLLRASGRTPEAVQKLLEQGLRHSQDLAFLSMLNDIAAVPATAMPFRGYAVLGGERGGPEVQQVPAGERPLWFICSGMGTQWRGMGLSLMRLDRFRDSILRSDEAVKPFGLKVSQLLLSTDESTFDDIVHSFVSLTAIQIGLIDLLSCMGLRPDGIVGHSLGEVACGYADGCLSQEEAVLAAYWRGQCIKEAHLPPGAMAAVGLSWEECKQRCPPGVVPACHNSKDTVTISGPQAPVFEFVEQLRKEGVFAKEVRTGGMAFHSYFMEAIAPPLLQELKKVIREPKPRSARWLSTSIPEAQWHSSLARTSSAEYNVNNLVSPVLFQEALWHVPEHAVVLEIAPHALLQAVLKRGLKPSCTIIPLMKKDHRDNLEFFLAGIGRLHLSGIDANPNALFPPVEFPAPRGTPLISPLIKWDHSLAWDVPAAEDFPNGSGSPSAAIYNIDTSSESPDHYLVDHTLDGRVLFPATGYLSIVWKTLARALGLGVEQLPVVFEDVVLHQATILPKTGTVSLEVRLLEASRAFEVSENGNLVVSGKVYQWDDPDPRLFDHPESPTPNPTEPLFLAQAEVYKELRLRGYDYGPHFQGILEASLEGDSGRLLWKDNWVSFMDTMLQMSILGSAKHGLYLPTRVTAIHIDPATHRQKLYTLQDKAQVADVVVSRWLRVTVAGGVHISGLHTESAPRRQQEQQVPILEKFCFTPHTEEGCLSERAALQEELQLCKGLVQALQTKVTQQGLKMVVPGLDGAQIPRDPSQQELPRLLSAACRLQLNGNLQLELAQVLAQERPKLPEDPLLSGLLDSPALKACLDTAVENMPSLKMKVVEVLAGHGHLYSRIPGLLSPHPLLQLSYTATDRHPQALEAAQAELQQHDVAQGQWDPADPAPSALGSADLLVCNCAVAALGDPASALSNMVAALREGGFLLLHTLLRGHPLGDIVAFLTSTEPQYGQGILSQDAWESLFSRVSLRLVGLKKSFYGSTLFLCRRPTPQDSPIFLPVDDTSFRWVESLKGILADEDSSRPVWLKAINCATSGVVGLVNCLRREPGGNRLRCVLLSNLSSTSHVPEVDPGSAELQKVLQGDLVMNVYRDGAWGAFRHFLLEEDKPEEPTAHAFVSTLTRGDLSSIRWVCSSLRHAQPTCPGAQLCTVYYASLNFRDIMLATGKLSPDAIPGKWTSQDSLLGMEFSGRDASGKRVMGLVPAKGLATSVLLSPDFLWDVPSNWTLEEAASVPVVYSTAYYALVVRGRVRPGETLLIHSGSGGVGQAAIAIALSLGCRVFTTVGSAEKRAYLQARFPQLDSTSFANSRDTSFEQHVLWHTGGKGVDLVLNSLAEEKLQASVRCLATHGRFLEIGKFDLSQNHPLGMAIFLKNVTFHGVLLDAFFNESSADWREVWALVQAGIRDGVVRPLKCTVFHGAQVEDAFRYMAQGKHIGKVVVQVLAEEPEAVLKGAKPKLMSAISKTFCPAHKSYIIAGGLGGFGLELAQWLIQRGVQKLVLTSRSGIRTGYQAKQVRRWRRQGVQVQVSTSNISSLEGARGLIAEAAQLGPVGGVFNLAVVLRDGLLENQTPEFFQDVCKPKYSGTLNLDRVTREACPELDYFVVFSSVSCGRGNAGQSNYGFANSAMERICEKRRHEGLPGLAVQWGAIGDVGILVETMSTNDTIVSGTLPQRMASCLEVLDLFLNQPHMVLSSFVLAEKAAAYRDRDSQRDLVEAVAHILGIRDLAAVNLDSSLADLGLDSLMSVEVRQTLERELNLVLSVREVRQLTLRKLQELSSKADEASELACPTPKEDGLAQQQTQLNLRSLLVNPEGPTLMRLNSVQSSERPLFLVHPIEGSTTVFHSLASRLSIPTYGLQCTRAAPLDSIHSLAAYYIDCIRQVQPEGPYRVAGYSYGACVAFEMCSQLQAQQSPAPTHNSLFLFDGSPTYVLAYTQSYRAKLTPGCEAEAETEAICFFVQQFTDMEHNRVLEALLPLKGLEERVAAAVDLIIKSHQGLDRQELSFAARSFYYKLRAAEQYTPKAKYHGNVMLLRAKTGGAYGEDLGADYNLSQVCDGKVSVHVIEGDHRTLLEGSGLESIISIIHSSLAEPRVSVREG

[6] = HepG2 cell cytotoxicity, dose response, cytotoxicity control for non-replicating M. tuberculosis project (AID 489018); format: functional; conditions: Mycobacterium tuberculosis
[7] = Vero E6 cell cytotoxicity, dose response, cytotoxicity control for non-replicating M. tuberculosis project, secondary assay (AID 492998); format: functional, VeroE6; conditions: Vero C1008
[8] = target: T6, Microphthalmia-associated transcription factor (Homo sapiens, UniProt O75030); assay: reducers of TRPM1 reporter luminescence, concentration series – cell-based, SK-MEL-5, cherry-picked, set 3, MITF inhibitor project, dose response (AID 493073); format: functional;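 further: SK-MEL-5 melanoma cells with luciferase driven by the MITF target TRPM1 promoter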
T6 sequence (O75030 whole entry): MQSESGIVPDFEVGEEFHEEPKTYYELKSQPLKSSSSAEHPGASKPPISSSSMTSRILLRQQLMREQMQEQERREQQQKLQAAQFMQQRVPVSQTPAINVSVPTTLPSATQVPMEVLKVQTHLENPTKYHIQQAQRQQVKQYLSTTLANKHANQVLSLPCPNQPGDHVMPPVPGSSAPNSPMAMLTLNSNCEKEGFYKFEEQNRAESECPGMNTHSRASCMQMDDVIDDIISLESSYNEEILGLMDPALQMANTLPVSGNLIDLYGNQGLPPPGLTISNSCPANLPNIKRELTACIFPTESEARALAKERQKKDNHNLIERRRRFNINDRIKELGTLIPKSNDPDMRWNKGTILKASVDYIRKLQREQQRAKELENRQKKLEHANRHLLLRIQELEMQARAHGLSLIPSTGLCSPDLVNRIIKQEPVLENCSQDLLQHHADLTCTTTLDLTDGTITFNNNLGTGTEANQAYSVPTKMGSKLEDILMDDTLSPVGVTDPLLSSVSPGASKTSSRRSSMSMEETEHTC

[9] = loss of viability in HepG2 cells – cell-based, CellTiter-Glo, cherry-picked, cytotoxicity control for Shn3 inhibitor project, dose response (AID 624134); format: functional
[10] = target: T7, Bifunctional protein GlmU (Mycobacterium tuberculosis, UniProt P9WMN3); assay: Inhibitors of Mycobacterial Glucosamine-1-phosphate acetyl transferase (GlmU). Secondary screen.; design: species or system Mycobacterium tuberculosis H37Rv
T7 sequence (P9WMN3 whole entry): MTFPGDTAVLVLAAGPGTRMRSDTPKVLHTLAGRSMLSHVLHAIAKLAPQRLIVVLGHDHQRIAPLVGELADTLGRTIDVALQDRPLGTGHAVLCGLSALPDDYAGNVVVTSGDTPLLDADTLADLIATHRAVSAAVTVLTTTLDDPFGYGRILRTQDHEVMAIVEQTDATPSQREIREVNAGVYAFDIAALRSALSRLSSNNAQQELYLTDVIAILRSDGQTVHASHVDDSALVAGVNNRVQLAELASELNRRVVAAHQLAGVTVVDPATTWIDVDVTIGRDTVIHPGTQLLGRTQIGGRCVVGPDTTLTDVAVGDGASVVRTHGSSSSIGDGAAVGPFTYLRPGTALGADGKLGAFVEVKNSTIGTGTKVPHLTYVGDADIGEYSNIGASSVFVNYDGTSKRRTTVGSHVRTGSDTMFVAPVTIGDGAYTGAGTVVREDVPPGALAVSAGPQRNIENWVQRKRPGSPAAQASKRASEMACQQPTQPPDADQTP

[11] = target: T8, Delta-type opioid receptor (Homo sapiens, UniProt P41143); assay: HTS Image-Based Screen for Agonists of the DOR Receptor. [Related pubchem assays (depositor defined):AID1777, AID1786, AID2133]; format: functional
T8 sequence (P41143 whole entry): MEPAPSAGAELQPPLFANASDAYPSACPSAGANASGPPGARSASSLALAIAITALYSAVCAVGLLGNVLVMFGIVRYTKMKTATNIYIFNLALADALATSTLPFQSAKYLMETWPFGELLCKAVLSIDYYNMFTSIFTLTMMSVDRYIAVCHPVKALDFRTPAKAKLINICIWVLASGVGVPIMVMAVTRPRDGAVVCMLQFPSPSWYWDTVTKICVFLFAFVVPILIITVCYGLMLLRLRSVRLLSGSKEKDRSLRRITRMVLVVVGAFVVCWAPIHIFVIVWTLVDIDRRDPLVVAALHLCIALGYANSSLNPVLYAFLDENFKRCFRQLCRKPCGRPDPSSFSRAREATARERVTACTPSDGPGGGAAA

[12] = Trypanosoma cruzi growth suppression in host cells – NIH3T3 host cells, beta-gal luminescence, confirmation (AID 2044); format: functional, cell-based;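 further: intracellular parasites grown in NIH/3T3 mouse fibroblasts as host cells; luminescent beta-galactosidase reporter signal from transgenic T. cruzi replicating inside host cells; inhibitors lower the luminescence signal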
[13] = target: T8, Delta-type opioid receptor; assay: HTS Image-Based Screen for Antagonists of the DOR Receptor. [Related pubchem assays (depositor defined):AID1777, AID1785, AID1786, AID2133]; format: functional
[14] = viability of PTEN-deleted HCT116 cells – cell-based, HCT116 PTEN knockout, dose response (AID 1047); format: functional;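 further: HCT116 colon tumor cells with PTEN knocked out; cells exposed to compound for 60 hours before readout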
[15] = viability of HCT116 lacking mutant beta-catenin – cell-based, human colon tumor, dose response (AID 1045); format: functional;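 further: HCT116 colon tumor cells with beta catenin knocked out; cells exposed to compound for 60 hours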
[16] = target: Beta Lactamase (Pseudomonas aeruginosa, UniProt Q932Y6); assay: BLA reporter interference, concentration series – BLA reporter cells, FRET fluorescence, artefact control for TLR9-MyD88 binding inhibitor project, dose response (AID 588341); format: cell-based;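 further: cell based assay in CHO-K1 cells stably expressing beta-lactamase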
[17] = non-specific 3'UTR reporter inhibition in Clone20-Shn3RL – cell-based, Renilla luciferase, cherry-picked, counter-screen for Shn3 inhibitor project, dose response (AID 624133); format: functional
[18] = NIH3T3 cell viability loss – ATP luminescence, mouse fibroblasts, counter-screen, dose response (AID 2010); format: functional, cell-based;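 further: cells exposed to compound for about 90 hours before reading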
[19] = target: Beta-galactosidase (Escherichia coli, UniProt Q8VNN2); format: functional
[20] = tested on: CHO; assay: CHO cell viability loss, potency – luminescence, cytotoxicity control for TLR9-MyD88 binding inhibitor project, dose response (AID 588339); format: functional, cell-based, hamster; conditions: Cricetulus griseus;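 further: CHO cells stably coexpressing TLR9 and MyD88 fusions from primary screen; compound exposure lasted 48 hours before viability readout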
[21] = THP-1 cell cytotoxicity, dose response, cytotoxicity control for non-replicating M. tuberculosis project (AID 489025); format: functional
[22] = reduction of Shn3 3'UTR-driven luciferase in osteoblasts – cell-based, Clone20 osteoblasts, firefly luciferase, cherry-picked, dose response (AID 624132); format: functional;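 further: firefly luciferase luminescence from reporter carrying the Shn3 3'UTR in osteoblasts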
[23] = target: T9, Kappa-type opioid receptor (Homo sapiens, UniProt P41145); format: functional
T9 sequence (P41145 whole entry): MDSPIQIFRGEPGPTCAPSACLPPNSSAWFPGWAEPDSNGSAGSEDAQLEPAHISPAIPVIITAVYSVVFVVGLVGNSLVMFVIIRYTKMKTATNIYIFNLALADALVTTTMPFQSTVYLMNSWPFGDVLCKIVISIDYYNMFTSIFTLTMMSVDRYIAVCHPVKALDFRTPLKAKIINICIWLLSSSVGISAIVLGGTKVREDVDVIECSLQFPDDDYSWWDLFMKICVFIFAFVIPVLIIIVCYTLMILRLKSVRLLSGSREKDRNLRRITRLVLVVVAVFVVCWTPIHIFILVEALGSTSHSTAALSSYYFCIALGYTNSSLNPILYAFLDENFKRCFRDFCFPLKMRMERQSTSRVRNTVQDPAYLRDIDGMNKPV

[24] = target: Mu-type opioid receptor (Homo sapiens, UniProt P35372); assay: HTS Image-Based Screen for Agonists of the MOR Receptor. [Related pubchem assays (depositor defined):AID1777, AID1785, AID1786, AID2133]; format: functional;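 further: imaging of beta-arrestin GFP recruitment into spots after receptor activation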
Mu-type opioid receptor, sequence (P35372 whole entry): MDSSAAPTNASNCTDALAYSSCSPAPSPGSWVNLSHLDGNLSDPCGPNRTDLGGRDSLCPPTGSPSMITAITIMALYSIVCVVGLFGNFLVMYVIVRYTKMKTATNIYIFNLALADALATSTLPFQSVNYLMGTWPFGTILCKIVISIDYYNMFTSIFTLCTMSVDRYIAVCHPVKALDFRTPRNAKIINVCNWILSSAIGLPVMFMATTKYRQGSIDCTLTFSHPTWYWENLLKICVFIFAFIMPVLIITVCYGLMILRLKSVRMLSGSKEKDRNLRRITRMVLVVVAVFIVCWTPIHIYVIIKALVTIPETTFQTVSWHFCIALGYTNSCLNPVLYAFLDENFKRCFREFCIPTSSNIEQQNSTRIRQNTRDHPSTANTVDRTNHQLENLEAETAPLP

[25] = target: T5, Fatty acid synthase; assay: inhibition of human FAS-TE enzyme activity – biochemical, kinetic fluorescence intensity, dose response (AID 624326); format: functional;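 further: rate of fluorescence rise from hydrolysis of a fluorogenic O-methyl fluorescein ester substrate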
[26] = target: T9, Kappa-type opioid receptor; format: functional; remark: listed apart in the source
[27] = cells; format: functional
[28] = target: Aurora kinase B (Homo sapiens, UniProt Q96GD4); format: functional
[29] = target: Aurora kinase A (Homo sapiens, UniProt O14965); format: functional;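 further: value from the Navigating the Kinome kinase panel profiling, panel entry STK6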
[30] = target: Vascular endothelial growth factor receptor 2 (Homo sapiens, UniProt P35968); format: functional
Vascular endothelial growth factor receptor 2, sequence (P35968 whole entry): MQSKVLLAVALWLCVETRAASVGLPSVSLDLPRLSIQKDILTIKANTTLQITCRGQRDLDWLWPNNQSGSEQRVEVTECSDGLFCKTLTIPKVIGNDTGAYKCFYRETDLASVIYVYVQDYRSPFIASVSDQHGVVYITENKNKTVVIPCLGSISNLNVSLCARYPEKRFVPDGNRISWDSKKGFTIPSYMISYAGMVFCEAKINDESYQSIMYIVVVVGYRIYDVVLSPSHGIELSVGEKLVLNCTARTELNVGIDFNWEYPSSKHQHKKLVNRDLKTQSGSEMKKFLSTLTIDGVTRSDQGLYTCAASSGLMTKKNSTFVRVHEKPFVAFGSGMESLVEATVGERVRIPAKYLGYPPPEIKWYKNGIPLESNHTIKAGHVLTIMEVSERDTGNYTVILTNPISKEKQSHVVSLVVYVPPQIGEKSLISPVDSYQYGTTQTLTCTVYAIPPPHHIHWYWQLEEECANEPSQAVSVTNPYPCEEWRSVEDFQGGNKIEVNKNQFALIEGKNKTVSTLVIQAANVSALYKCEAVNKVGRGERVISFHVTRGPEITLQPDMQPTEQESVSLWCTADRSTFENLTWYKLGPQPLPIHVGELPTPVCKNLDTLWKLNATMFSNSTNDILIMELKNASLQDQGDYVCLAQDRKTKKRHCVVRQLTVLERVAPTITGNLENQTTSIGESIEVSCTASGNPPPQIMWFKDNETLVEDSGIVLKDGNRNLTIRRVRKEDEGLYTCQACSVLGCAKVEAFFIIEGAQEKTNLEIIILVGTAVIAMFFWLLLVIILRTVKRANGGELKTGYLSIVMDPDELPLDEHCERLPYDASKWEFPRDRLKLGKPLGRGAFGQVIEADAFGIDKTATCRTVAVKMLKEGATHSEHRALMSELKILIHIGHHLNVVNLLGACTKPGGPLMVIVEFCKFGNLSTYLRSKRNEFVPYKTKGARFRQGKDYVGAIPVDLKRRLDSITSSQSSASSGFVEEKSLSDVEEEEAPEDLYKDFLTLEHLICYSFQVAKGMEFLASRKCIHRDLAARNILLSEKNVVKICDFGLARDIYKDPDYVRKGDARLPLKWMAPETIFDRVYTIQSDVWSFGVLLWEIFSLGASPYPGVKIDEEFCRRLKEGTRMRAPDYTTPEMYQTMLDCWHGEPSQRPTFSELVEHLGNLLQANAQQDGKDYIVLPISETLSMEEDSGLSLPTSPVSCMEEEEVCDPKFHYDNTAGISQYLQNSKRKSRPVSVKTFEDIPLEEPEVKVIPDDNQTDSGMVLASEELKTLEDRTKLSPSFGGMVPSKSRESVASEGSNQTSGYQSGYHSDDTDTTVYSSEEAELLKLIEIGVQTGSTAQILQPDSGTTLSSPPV

C(=N\Nc1cc(N2CCCC2)nc(N2CCCC2)n1)/c1ccccc1
active: IC50 [1] 89.9 µM | IC50 [3] 15.1 µM
inactive: IC50 [2] > 99 µM | IC50 [4] > 99 µM

CC(=O)OCCNc1cc(Sc2nc3ccccc3[nH]2)c2nonc2c1[N+](=O)[O-]
17.1 µM: IC50 [23]
inactive: EC50 [11] > 32 µM | IC50 [13] > 32 µM | IC50 [16] 10 µM | EC50 [19] > 31.5 µM | EC50 [24] > 32 µM
active: IC50 [5] 1.75 µM | CC50 [6] 12.4 µM | CC50 [7] 13.5 µM | AC50 [8] 11.5 µM | AC50 [9] 17.5 µM | IC50 [10] 116 µM | EC50 [12] 2.47 µM | EC50 [14] 4.91 µM | EC50 [15] 4.64 µM | AC50 [17] 6.26 µM | EC50 [18] 3.66 µM | IC50 [20] 3.06 µM | CC50 [21] 19.9 µM | AC50 [22] 1.86 µM | IC50 [25] 2.59 µM | IC50 [26] 5.01 µM | IC50 [27] 5.83 µM

NC(=NO)c1cccc(S(=O)(=O)Nc2ccc3c(c2)C(=NO)c2ccccc2-3)c1
inactive: Ki [30] > 5.01 µM
active: Ki [28] 0.02 µM | Ki [29] 1 µM
